# Measurements published in patent US9133204B2, “5-membered heterocyclic amides and related compounds” (H. Lundbeck A/S, priority 2007, dated 2015).
# Molecular target: T1, P2X7 receptor (Homo sapiens, UniProt Q99572)
# T1 construct: host or cells: SH-SY5Y
# T1 sequence (Q99572 1-595): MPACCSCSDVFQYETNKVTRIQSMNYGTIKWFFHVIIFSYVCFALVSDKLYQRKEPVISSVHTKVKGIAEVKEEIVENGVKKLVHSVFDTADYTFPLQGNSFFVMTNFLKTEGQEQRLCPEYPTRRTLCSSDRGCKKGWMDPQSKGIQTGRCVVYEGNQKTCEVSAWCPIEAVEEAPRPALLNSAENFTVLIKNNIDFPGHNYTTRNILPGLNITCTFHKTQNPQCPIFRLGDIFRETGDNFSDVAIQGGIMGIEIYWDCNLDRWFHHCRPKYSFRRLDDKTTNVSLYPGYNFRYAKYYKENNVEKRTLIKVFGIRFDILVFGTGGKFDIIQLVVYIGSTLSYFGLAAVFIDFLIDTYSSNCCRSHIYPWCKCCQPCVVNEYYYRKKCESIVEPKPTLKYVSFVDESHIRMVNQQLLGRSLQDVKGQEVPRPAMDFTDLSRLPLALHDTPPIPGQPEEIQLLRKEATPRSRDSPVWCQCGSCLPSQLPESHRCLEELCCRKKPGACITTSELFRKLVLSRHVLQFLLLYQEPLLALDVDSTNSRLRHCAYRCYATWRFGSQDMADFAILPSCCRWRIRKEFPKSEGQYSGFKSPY
# Assay: High throughput P2X7 calcium mobilization assay (Example 4A)
# Format: cell-based
# Settings: SH-SY5Y cells; 50% decrease in fluorescence response of cells exposed to 80 μM BzATP; Table I
# Method: A. High Throughput Assay of P2X7 Receptors
# SH-SY5Y cells, ATCC Number CRL-2266, (American Type Culture Collection, Manassas, Va.) are cultured under DMEM/High medium supplemented with 10% FBS, and 10 mM HEPES (Invitrogen Corp., Carlsbad, Calif.) in 5% CO2 and at 37° C. One day prior to the experiment, cells are plated at a density of 100,000 cells/well in a 96 well black/clear TC plate (Corning® Costar®, Sigma-Aldrich Co., St. Louis, Mo.). At the beginning of the experiment, the culture medium is removed and cells are incubated with 50 μL of 2.3 μM Fluo-4 AM dye (Invitrogen Corp.) in the assay solution (5 mM KCl, 9.6 mM NaH2PO4.H2O, 25 mM HEPES, 280 mM sucrose, 5 mM glucose, and 0.5 mM CaCl2; pH is adjusted to 7.4 with NaOH) for an hour at 37° C. After one hour dye incubation, wells are rinsed once with 50 μL assay solution, and are then incubated for an hour at room temperature with 100 μL assay solution containing the test compound. The final concentration of test compound generally ranges from 1 to 2500 nM; for positive control cells, no test compound is added. After the one hour incubation, plates are transferred to a FLIPR^TETRA instrument (Molecular Devices, Sunnyvale, Calif.) for calcium mobilization analysis.
# For determination of antagonist activity, 50 μL, of P2X7 agonist (2′(3)-O-(4-benzoyl-benzoyl)adenosine 5′-triphosephate (BzATP; Sigma-Aldrich) in the assay solution is transferred using the FLIPR into the plate, such that the final agonist concentration is 80 μM (about EC50). In negative control cells, 50 μL of assay solution without agonist is added at this stage. The peak fluorescence signal over a 2 minute period is then measured.
# First, the average maximum relative fluorescent unit (RFU) response from the negative control wells (no agonist) is subtracted from the maximum response detected for each of the other experimental wells. Second, average maximum RFU response is calculated for the positive control wells (agonist wells).
row,IC50,SMILES
1,≤ 2000 nM,"Cc1cnc(-n2cc(C(=O)NCC34CC5CC(CC(C5)C3)C4)c(C)n2)nc1 [Compound 94, N-(adamantan-1-ylmethyl)-3-methyl-1-(5-methylpyrimidin-2-yl)-1H-pyrazole-4-carboxamide]"
2,≤ 2000 nM,"CCNC(=O)c1nc(-n2cc(C(=O)NCC34CC5CC(CC(C5)C3)C4)c(C)n2)ncc1C [Compound 107, 2-{4-[(adamantan-1-ylmethyl)carbamoyl]-3-methyl-1H-pyrazol-1-yl]-N-ethyl-5-methylpyrimidine-4-carboxamide]"
3,≤ 2000 nM,"Cc1cncc(-n2cc(C(=O)NCC3(c4cccnc4)CCCCC3)c(C(F)(F)F)n2)n1 [Compound 187, 1-(6-methylpyrazin-2-yl)-N-[(1-pyridin-3-ylcyclohexyl)methyl]-3-(trifluoromethyl)-1H-pyrazole-4-carboxamide]"
4,≤ 2000 nM,"O=C(NCC12CC3CC(CC(C3)C1)C2)c1c[nH]nc1C(F)(F)F [Compound 134, N-(adamantan-1-ylmethyl)-3-(trifluoromethyl)-1H-pyrazole-4-carboxamide]"
5,≤ 2000 nM,"O=C(NCC1(N2CCOCC2)CCCCC1)c1cn(-c2ncccn2)nc1C(F)(F)F [Compound 198, N-[(1-morpholin-4-ylcyclohexyl)methyl]-1-pyrimidin-2-yl-3-(trifluoromethyl)-1H-pyrazole-4-carboxamide]"
6,≤ 2000 nM,"Cc1cnc(-n2cc(C(=O)NCC34CC5CC(CC(C5)C3)C4)c(C)n2)nc1C(N)=O [Compound 96, 2-{4-[(adamantan-1-ylmethyl)carbamoyl]-3-methyl-1H-pyrazol-1-yl}-5-methylpyrimidine-4-carboxamide]"
7,≤ 2000 nM,"O=C(NCC1(c2cccnc2)CCCCC1)c1sc(N2CCC(N3CCCC3)CC2)nc1C(F)(F)F [Compound 302, N-[(1-pyridin-3-ylcyclohexyl)methyl]-2-(4-pyrrolidin-1-ylpiperidin-1-yl)-4-(trifluoromethyl)-1,3-thiazole-5-carboxamide]"
8,≤ 2000 nM,"CCCc1ccc(C(=O)NCC23CC4CC(CC(C4)C2)C3)s1 [Compound 78, N-(1-adamantylmethyl)-5-propylthiophene-2-carboxamide]"
9,≤ 2000 nM,"CC(C)CC(CNC(=O)c1cn(-c2ncccn2)nc1C(F)(F)F)c1cccnc1 (stereo not shown) [Compound 203, N-(4-methyl-2-pyridin-3-ylpentyl)-1-pyrimidin-2-yl-3-(trifluoromethyl)-1H-pyrazole-4-carboxamide]"
10,≤ 2000 nM,"Cc1nn(-c2nccnc2N)cc1C(=O)NCC1(c2ccc(C(F)(F)F)cc2)CCCCC1 [Compound 182, 1-(3-aminopyrazin-2-yl)-3-methyl-N-({1-[4-(trifluoromethyl)phenyl]cyclohexyl}methyl)-1H-pyrazole-4-carboxamide]"
11,≤ 2000 nM,"Cn1ccnc1-n1cc(C(=O)NCC23CC4CC(CC(C4)C2)C3)c(C(F)(F)F)n1 [Compound 142, N-(adamantan-1-ylmethyl)-1-(1-methyl-1H-imidazol-2-yl)-3-(trifluoromethyl)-1H-pyrazole-4-carboxamide]"
12,≤ 2000 nM,"Cc1cnc(-n2cc(C(=O)NCC(CC(C)C)c3ccc(C(F)(F)F)cc3)c(C)n2)nc1N (stereo not shown) [Compound 115, 1-(4-amino-5-methylpyrimidin-2-yl)-3-methyl-N-{4-methyl-2-[4-(trifluoromethyl)phenyl]pentyl}-1H-pyrazole-4-carboxamide]"
13,≤ 2000 nM,"CC(C)CCNC(=O)c1cn(-c2ncccn2)nc1C(F)(F)F [Compound 206, N-(3-methylbutyl)-1-pyrimidin-2-yl-3-(trifluoromethyl)-1H-pyrazole-4-carboxamide]"
14,≤ 2000 nM,"CC(C)CC(CNC(=O)c1sc(-c2cccnc2)nc1C(F)(F)F)c1ccc(C(F)(F)F)cc1 (stereo not shown) [Compound 165, N-{4-methyl-2-[4-(trifluoromethyl)phenyl]pentyl}-2-pyridin-3-yl-4-(trifluoromethyl)-1,3-thiazole-5-carboxamide]"
15,≤ 2000 nM,"O=C(NCC(c1ccc(Cl)cc1)N1CCCC1)c1sc(-c2ncccn2)nc1C(F)(F)F (stereo not shown) [Compound 286, N-[2-(4-chlorophenyl)-2-pyrrolidin-1-ylethyl]-2-pyrimidin-2-yl-4-(trifluoromethyl)-1,3-thiazole-5-carboxamide]"
16,≤ 2000 nM,"O=C(NCC(CC1CCCC1)c1ccccc1)c1cn(-c2ncccn2)nc1C(F)(F)F (stereo not shown) [Compound 210, N-(3-cyclopentyl-2-phenylpropyl)-1-pyrimidin-2-yl-3-(trifluoromethyl)-1H-pyrazole-4-carboxamide]"
17,≤ 2000 nM,"Cc1nn(-c2ncc(Br)cn2)cc1C(=O)NCC12CC3CC(CC(C3)C1)C2 [Compound 125, N-(adamantan-1-ylmethyl)-1-(5-bromopyrimidin-2-yl)-3-methyl-1H-pyrazole-4-carboxamide]"
18,≤ 2000 nM,"O=C(NCC1(c2cccnc2)CCCCC1)c1sc(-c2ccc3[nH]ccc3c2)nc1C(F)(F)F [Compound 318, 2-(1H-indol-5-yl)-N-[(1-pyridin-3-ylcyclohexyl)methyl]-4-(trifluoromethyl)-1,3-thiazole-5-carboxamide]"
19,≤ 2000 nM,"Cc1nc(N2CCNCC2)sc1C(=O)NCC12CC3CC(CC(C3)C1)C2 [Compound 72, N-(adamantan-1-ylmethyl)-4-methyl-2-piperazin-1-yl-1,3-thiazole-5-carboxamide]"
20,≤ 2000 nM,"O=C(NCC1(c2ccc(Cl)nc2)CCCCC1)c1sc(-c2ncccn2)nc1C(F)(F)F [Compound 291, N-{[1-(6-chloropyridin-3-yl)cyclohexyl]methyl}-2-pyrimidin-2-yl-4-(trifluoromethyl)-1,3-thiazole-5-carboxamide]"
21,≤ 2000 nM,"O=C(NCC1(c2cccnc2)CCCCC1)c1cn(-c2ncccn2)nc1C(F)(F)F [Compound 151, N-[(1-pyridin-3-ylcyclohexyl)methyl]-1-pyrimidin-2-yl-3-(trifluoromethyl)-1H-pyrazole-4-carboxamide]"
22,≤ 2000 nM,Cc1nn(-c2ccccn2)cc1C(=O)NCC12CC3CC(CC(C3)C1)C2 [Compound 98]
23,≤ 2000 nM,"Cc1nn(-c2nccc(C(F)(F)F)n2)cc1C(=O)NCC12CC3CC(CC(C3)C1)C2 [Compound 111, N-(adamantan-1-ylmethyl)-3-methyl-1-[4-(trifluoromethyl)pyrimidin-2-yl]-1H-pyrazole-4-carboxamide]"
24,≤ 2000 nM,"O=C(NCC1(c2cccnc2)CCCCC1)c1cn(-c2ncc(Cl)cn2)nc1C(F)(F)F [Compound 192, 1-(5-chloropyrimidin-2-yl)-N-[(1-pyridin-3-ylcyclohexyl)methyl]-3-(trifluoromethyl)-1H-pyrazole-4-carboxamide]"
25,≤ 2000 nM,"CCc1nc(-c2ncccn2)sc1C(=O)NCC(c1ccc(C(F)(F)F)cc1)N(C)C(C)C (stereo not shown) [Compound 315, 4-ethyl-N-{2-[isopropyl(methyl)amino]-2-[4-(trifluoromethyl)phenyl]ethyl}-2-pyrimidin-2-yl-1,3-thiazole-5-carboxamide]"
26,≤ 2000 nM,"Cc1nn(-c2ncc(F)c(N)n2)cc1C(=O)NCC12CC3CC(CC(C3)C1)C2 [Compound 110, N-(adamantan-1-ylmethyl)-1-(4-amino-5-fluoropyrimidin-2-yl)-3-methyl-1H-pyrazole-4-carboxamide]"

# Same assay, conditions: SH-SY5Y cells; 50% decrease in fluorescence response of cells exposed to 80 μM BzATP; flag after the MS data in Examples 1-2
row,IC50,SMILES
1,≤ 2000 nM,"Nc1nc(-n2cc(C(=O)NCC3(c4cccnc4)CCCCC3)c(C(F)(F)F)n2)ncc1F [Compound 2, 1-(4-Amino-5-fluoropyrimidin-2-yl)-N-((1-(pyridin-3-yl)cyclohexyl)methyl)-3-(trifluoromethyl)-1H-pyrazole-4-carboxamide]"
2,≤ 2000 nM,"Cc1ccc(C2(CNC(=O)c3cn(-c4ncccn4)nc3Cl)CCCCC2)cn1 [Compound 12, 3-Chloro-N-{[1-(6-methylpyridin-3-yl)cyclohexyl]methyl}-1-pyrimidin-2-yl-1H-pyrazole-4-carboxamide]"
